Measurements as given in US5081112A, “Method for treating hyperlipidemia” (Otsuka Pharmaceutical Factory Inc., priority 1986, dated 1992).
Read-outs that look alike come from different tables or passages of the source.

How the values were obtained:
[1] = system: Triton WR-1339-induced hyperlipidemia in rat; assay: antilipotropic effect in Triton WR-1339-induced hyperlipidemia in rat; assay type: in vivo, Wistar-strain male rats; details: 50 mg/kg oral, vs control
Text: Wistar-strain male rats of 5-9 week age were used as test animals. One test group consisting of six (6) rats.
[a] is a determined value obtained from the control group, and
[b] is a determined value obtained from the test group).

[2] = system: biosynthetic pathway of cholesterol; assay: inhibitory effect in biosynthetic pathway of cholesterol; assay type: biochemical; details: 10^-4 M; rat liver microsomes and soluble fraction; 90 min, 100 µM
Description: Test for determining inhibitory effect in biosynthetic pathway of cholesterol
Each one of the test compounds was added to rat liver microsomes fraction (containing 0.2 mg of protein) and soluble fraction (containing 2 mg of protein), then the volume of the mixture was adjusted to 100 microliters by adding 0.1 M-potassium phosphate buffer solution (pH 7.4), then this mixture was incubated at 37° C. for 10 minutes.
After the incubation, the reaction was started by adding 200 microliters of a solution containing 1 mM ATP, 10 mM glucose-1-phosphate, 6 mM glutathione, 6 mM MgCl2, […], 0.25 mM […], 0.25 mM NADP, and 1 mM [1-^14 C] sodium acetate (3.0 mCi/mM).
The whole mixture was incubated at 37° C. for 90 minutes, then the reaction was terminated by adding […] of 15%-KOH (a 95% ethanol solution), next 2 mg of cholesterol was added thereto, saponified at 75° C. for 1 hour, and cholesterol was extracted with petroleum ether, the extract was concentrated to dryness. To the residue thus obtained was added with 2.5 ml of a mixture of acetone-diethyl ether (1:1) and 2.5 ml of 1%-digitonin (a 50% ethanol solution), then this solution was allowed to stand for 1 hour in cooling condition by using ice-water to precipitate cholesterol. The precipitate was washed with acetone, a mixture of acetonediethyl ether (1:1) and diethyl ether in this order, then the radioactivity of the residue was measured by using a liquid scintillation counter.
Control test was also conducted by the procedures similar to those mentioned above in the test group, except that each one of the test compounds was not used.
Inhibitory effect in biosynthetic pathway of cholesterol performed by each one of the test compounds was calculated, in terms of inhibitory ratio (%), from the formula on the basis of the radioactivity of the control group as follows: [formula] (wherein
[c] is a radioactivity of the control group, and
[d] is a radio activity of the test group).

[3] = 24 hours after Triton WR-1339 (400 mg/kg, tail vein), read-out: lowering ratio of serum triglycerides, 24 hours after Triton WR-1339
[4] = 24 hours after Triton WR-1339 (400 mg/kg, tail vein), read-out: lowering ratio of total serum cholesterol, 24 hours after Triton WR-1339
[5] = 48 hours after Triton WR-1339 (400 mg/kg, tail vein), read-out: lowering ratio of serum triglycerides, 48 hours after Triton WR-1339
[6] = 48 hours after Triton WR-1339 (400 mg/kg, tail vein), read-out: lowering ratio of total serum cholesterol, 48 hours after Triton WR-1339

Row | Structure (SMILES) | inhibition in vivo at 50 mg/kg [1, 3] | inhibition in vivo at 50 mg/kg [1, 4] | inhibition in vivo at 50 mg/kg [1, 5] | inhibition in vivo at 50 mg/kg [1, 6] | Inhibitory ratio of cholesterol biosynthesis [2]
1 | CCOP(=O)(Cc1ccc(C(=O)Nc2ccc(Cl)c(C(F)(F)F)c2)cc1)OCC [compound 9] | 11.3% | 11.7% | 68.4% | 42.3% | 
2 | CCOP(=O)(Cc1ccc(C(=O)N(Cc2ccccc2)c2ccc(C(F)(F)F)cc2)cc1)OCC [compound 12] | 60.4% | 36.9% | 83.9% |  | 
3 | CCOP(=O)(Cc1ccc(C(=O)Nc2ccc(C(F)(F)F)cc2)cc1)OCC [compound 13] | 73.9% | 33.7% | 95.4% | 64.4% | 
4 | CCOP(=O)(Cc1ccc(C(=O)N(C)c2ccc(Cl)cc2)cc1)OCC [compound 14] | 46% | 29.3% |  | 49.4% | 
5 | CCOP(=O)(Cc1ccc(C(=O)N(c2ccc(Cl)cc2)C2CCCC2)cc1)OCC [compound 15] | 23% | 9.8% | 55.8% | 22.6% | 
6 | CCOP(=O)(Cc1ccc(C(=O)Nc2ccc(I)cc2)cc1)OCC [compound 16] | 94.1% | 64% | 95.3% | 75.1% | 
7 | CCOP(=O)(Cc1ccc(C(=O)N(Cc2ccc(Cl)cc2)c2ccc(Cl)c(Cl)c2)cc1)OCC [compound 17] | 56.8% | 27.8% | 94.1% | 64.4% | 
8 | CCOP(=O)(Cc1ccc(C(=O)Nc2ccc([N+](=O)[O-])cc2)cc1)OCC [compound 18] | 54.4% | 32.7% | 74.9% | 37.5% | 
9 | CCOP(=O)(Cc1ccc(C(=O)Nc2ccc(C#N)cc2)cc1)OCC [compound 19] | 90.5% | 60.6% | 94.7% | 63.6% | 
10 | CCOP(=O)(Cc1ccc(C(=O)Nc2ccc(F)cc2)cc1)OCC [compound 20] | 57.3% | 27% | 90.5% | 55.1% | 
11 | CCOP(=O)(Cc1ccc(C(=O)N(Cc2ccc(Cl)cc2)c2ccc(Cl)cc2)cc1)OCC [compound 21] | 47.9% | 15.9% | 89.1% | 52.3% | 
12 | CCOP(=O)(Cc1ccc(C(=O)Nc2ccc(OC)cc2)cc1)OCC [compound 23] | 25.5% | 17.3% | 27.6% | 32.5% | 
13 | CCOP(=O)(Cc1cccc(C(=O)N(c2ccccc2)c2ccc(C(=O)OC)cc2)c1)OCC [compound 24] |  |  |  |  | 21.6%
14 | CCOP(=O)(Cc1ccccc1C(=O)N(Cc1ccc(C#N)cc1)c1ccc(OC)cc1)OCC [compound 25] |  |  |  |  | 20.1%
15 | CCOP(=O)(Cc1ccc(C(=O)Nc2ccccc2O)cc1)OCC [compound 28] |  |  |  |  | 22.1%
16 | CCOP(=O)(Cc1ccc(C(=O)NCCc2ccc(OC)c(OC)c2)cc1)OCC [compound 30] |  |  |  |  | 28.9%
17 | CCCCCCCCN(C(=O)c1ccc(CP(=O)(OCC)OCC)cc1)c1ccccc1 [compound 33] |  |  |  |  | 89.6%
18 | CCCCCCCCC(c1ccc(C(=O)N(CCCCCCCC)c2ccccc2)cc1)P(=O)(OCC)OCC (stereo not drawn) [compound 34] |  |  |  |  | 85.2%
19 | CCOP(=O)(Cc1ccc(C(=O)N(c2ccccc2)C2CCCCC2)cc1)OCC [compound 35] |  |  |  |  | 39.2%
20 | CCOP(=O)(Cc1ccc(C(=O)N(Cc2ccc(C)cc2)c2ccccc2)cc1)OCC [compound 37] |  |  |  |  | 82.8%
21 | CCOP(=O)(Cc1ccc(C(=O)N(Cc2ccc(OC)cc2)c2ccccc2)cc1)OCC [compound 38] |  |  |  |  | 85.2%
22 | CCOP(=O)(Cc1ccc(C(=O)N(Cc2ccc([N+](=O)[O-])cc2)c2ccccc2)cc1)OCC [compound 39] |  |  |  |  | 74.6%

Row | Structure (SMILES) | inhibition in vivo at 50 mg/kg [1, 3] | inhibition in vivo at 50 mg/kg [1, 4] | inhibition in vivo at 50 mg/kg [1, 5] | inhibition in vivo at 50 mg/kg [1, 6] | Inhibitory ratio of cholesterol biosynthesis [2]
23 | CCOP(=O)(Cc1ccc(C(=O)N(Cc2cccc(C(F)(F)F)c2)c2ccccc2)cc1)OCC [compound 40] |  |  |  |  | 91.6%
24 | CCOP(=O)(Cc1ccc(C(=O)N(CCc2ccccc2)c2ccccc2)cc1)OCC [compound 42] |  |  |  |  | 86.7%
25 | CCOP(=O)(Cc1ccc(C(=O)N(C)Cc2ccccc2)cc1)OCC [compound 43] |  |  |  |  | 23.8%
26 | CCOP(=O)(Cc1ccc(C(=O)N(Cc2ccccc2)C(C)C)cc1)OCC [compound 44] |  |  |  |  | 46.2%
27 | CCOP(=O)(Cc1ccc(C(=O)N(Cc2ccccc2)C2CCCCC2)cc1)OCC [compound 45] |  |  |  |  | 76.9%
28 | CCOP(=O)(Cc1ccc(C(=O)N(Cc2ccccc2)c2ccc(C)cc2)cc1)OCC [compound 46] |  |  |  |  | 59.1%
29 | CCOP(=O)(Cc1ccc(C(=O)N(Cc2ccccc2)c2ccccc2F)cc1)OCC [compound 47] |  |  |  |  | 67.2%
30 | CCOP(=O)(Cc1ccc(C(=O)N(Cc2ccccc2)c2ccc(OC)cc2)cc1)OCC [compound 48] |  |  |  |  | 63.7%
31 | CCOP(=O)(Cc1ccc(C(=O)N(Cc2ccccc2)c2ccc(C#N)cc2)cc1)OCC [compound 49] |  |  |  |  | 75.2%
32 | CCOP(=O)(OCC)C(Cc1ccccc1)c1ccc(C(=O)N(Cc2ccccc2)c2cccc(C(F)(F)F)c2)cc1 (stereo not drawn) [compound 51] |  |  |  |  | 70.4%
33 | CCOP(=O)(Cc1ccc(C(=O)N(Cc2ccccc2)c2ccc(OC)c(OC)c2)cc1)OCC [compound 53] |  |  |  |  | 59.0%
34 | CCOP(=O)(Cc1ccc(C(=O)N(Cc2ccccc2)Cc2ccccc2)cc1)OCC [compound 54] |  |  |  |  | 69.7%
35 | CCOP(=O)(Cc1ccc(C(=O)Nc2ccccc2Br)cc1)OCC [compound 55] |  |  |  |  | 57.1%
36 | CCOP(=O)(Cc1ccc(C(=O)N2CCN(C)CC2)cc1)OCC [compound 56] |  |  |  |  | 23.6%
37 | CCOP(=O)(Cc1ccc(C(=O)N2CCN(c3ccccc3C)CC2)cc1)OCC [compound 57] |  |  |  |  | 41.9%
38 | CCOP(=O)(Cc1ccc(C(=O)N2CCN(c3ccc(OC)cc3)CC2)cc1)OCC [compound 59] |  |  |  |  | 55.1%
39 | CCOP(=O)(Cc1ccc(C(=O)N2CCN(c3cccc(C(F)(F)F)c3)CC2)cc1)OCC [compound 60] |  |  |  |  | 24.9%
40 | CCOP(=O)(Cc1ccc(C(=O)N2CCN(Cc3ccccc3)CC2)cc1)OCC [compound 61] |  |  |  |  | 58.3%
41 | CCOP(=O)(OCC)C(C)c1ccc(C(=O)N(CCc2ccccc2)Cc2ccccc2)cc1 (stereo not drawn) [compound 62] |  |  |  |  | 80.2%
42 | CCOP(=O)(Cc1ccc(C(=S)N(C)c2ccccc2)cc1)OCC [compound 67] |  |  |  |  | 32.5%
43 | CCOP(=O)(Cc1ccc(C(=S)N(C)Cc2ccccc2)cc1)OCC [compound 68] |  |  |  |  | 57.2%
44 | CCOP(=O)(Cc1ccc(C(=S)N(Cc2ccccc2)Cc2ccccc2)cc1)OCC [compound 69] |  |  |  |  | 85.3%
